{"source": "ChEMBL document CHEMBL1649300", "about": "“Bacterial strain-to-strain variation in pharmacodynamic index magnitude, a hitherto unconsidered factor in establishing antibiotic clinical breakpoints” (2009)", "key": {"Staphylococcus aureus [1]": {"test_system": "Staphylococcus aureus", "assay": "Antibacterial activity against Staphylococcus aureus SMH36945 by broth dilution method"}, "Staphylococcus aureus [2]": {"test_system": "Staphylococcus aureus", "assay": "Antibacterial activity against Staphylococcus aureus SMH37312 by broth dilution method"}, "Staphylococcus aureus [3]": {"test_system": "Staphylococcus aureus", "assay": "Antibacterial activity against Staphylococcus aureus SMH37390 by broth dilution method", "format": "functional"}, "Staphylococcus aureus [4]": {"test_system": "Staphylococcus aureus", "assay": "Antibacterial activity against Staphylococcus aureus SMH37276 by broth dilution method", "format": "functional"}, "Staphylococcus aureus [5]": {"test_system": "Staphylococcus aureus", "assay": "Antibacterial activity against Staphylococcus aureus SMH37099 by broth dilution method"}, "Staphylococcus aureus [6]": {"test_system": "Staphylococcus aureus", "assay": "Antibacterial activity against Staphylococcus aureus SMH36742 by broth dilution method"}, "Staphylococcus aureus [7]": {"test_system": "Staphylococcus aureus", "assay": "Antibacterial activity against Staphylococcus aureus SMH38004 by broth dilution method", "format": "functional"}, "Staphylococcus aureus [8]": {"test_system": "Staphylococcus aureus", "assay": "Antibacterial activity against Staphylococcus aureus SMH36633 by broth dilution method"}}, "data": [{"smiles": "COc1c(N2C[C@@H]3CCCN[C@@H]3C2)c(F)cc2c(=O)c(C(=O)O)cn(C3CC3)c12", "note": "[MOXIFLOXACIN]", "values": [{"measurement": "MIC", "setting": "Staphylococcus aureus [1]", "result": 2, "unit": "µg/mL"}, {"measurement": "MIC", "setting": "Staphylococcus aureus [2]", "result": 0.03, "unit": "µg/mL"}, {"measurement": "MIC", "setting": "Staphylococcus aureus [3]", "result": 0.04, "unit": "µg/mL"}, {"measurement": "MIC", "setting": "Staphylococcus aureus [4]", "result": 0.7, "unit": "µg/mL"}, {"measurement": "MIC", "setting": "Staphylococcus aureus [5]", "result": 0.03, "unit": "µg/mL"}, {"measurement": "MIC", "setting": "Staphylococcus aureus [6]", "result": 1, "unit": "µg/mL"}, {"measurement": "MIC", "setting": "Staphylococcus aureus [7]", "result": 0.09, "unit": "µg/mL"}, {"measurement": "MIC", "setting": "Staphylococcus aureus [8]", "result": 0.03, "unit": "µg/mL"}]}]}
